Experimental data reported in the supplement of paper PMC10307832.

Assays:
Experiment in all cases: relative viability (nuclei count vs DMSO), 5 days (fraction); higher = more cells survive
[1] = compound: CC(C)C[C@H](NC(=O)[C@H](Cc1ccccc1)NC(=O)c1cnccn1)B(O)O [Bortezomib] + O=C(c1cc(Cc2n[nH]c(=O)c3ccccc23)ccc1F)N1CCN(C(=O)C2CC2)CC1 [Olaparib] (partner 8 µM)
How it was run: (§1)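 One day after seeding in 1536-well plates, lung cancer cell lines were dosed by pin tool. Dosing was either single-drug or a fixed anchor-drug dose plus five library-drug doses (not always all listed) in √10 steps. After 5 days, nuclei were stained in one fix-and-stain step and counted on 4× images, and relative viability is the nuclei count of treated wells over that of vehicle wells, given as the median of duplicate plates.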

[2] = compound: COC1=CC(c2cc3ccccc3[nH]2)=N/C1=C\c1[nH]c(C)cc1C [Obatoclax] + C[C@]1(O)C[C@@H](c2nc(-c3ccc4ccc(-c5ccccc5)nc4c3)c3c(N)nccn32)C1 [Linsitinib] (partner 1 µM)
How it was run: as §1

[3] = compound: CC(C)C[C@H](NC(=O)[C@H](Cc1ccccc1)NC(=O)c1cnccn1)B(O)O [Bortezomib] + C[C@]1(O)C[C@@H](c2nc(-c3ccc4ccc(-c5ccccc5)nc4c3)c3c(N)nccn32)C1 [Linsitinib] (partner 1 µM)
How it was run: as §1

[4] = compound: CC1=CC(=NN1)NC2=CC(=NC(=N2)/C=C/C3=CC=CC=C3)N4CCN(CC4)C + C[C@]1(O)C[C@@H](c2nc(-c3ccc4ccc(-c5ccccc5)nc4c3)c3c(N)nccn32)C1 [Linsitinib] (partner 1 µM)
How it was run: as §1

| Cell Line | relative viability ([1]; first compound 0.0002 µM) | relative viability ([1]; first compound 0.000632 µM) | relative viability ([1]; first compound 0.002 µM) | relative viability ([1]; first compound 0.006325 µM) | relative viability ([1]; first compound 0.02 µM) | relative viability ([2]; first compound 0.01 µM) | relative viability ([2]; first compound 0.03162 µM) | relative viability ([2]; first compound 0.1 µM) | relative viability ([2]; first compound 0.3162 µM) | relative viability ([2]; first compound 1 µM) | relative viability ([3]; first compound 0.0002 µM) | relative viability ([3]; first compound 0.000632 µM) | relative viability ([3]; first compound 0.002 µM) | relative viability ([3]; first compound 0.006325 µM) | relative viability ([3]; first compound 0.02 µM) | relative viability ([4]; first compound 0.08 µM) | relative viability ([4]; first compound 0.253 µM) | relative viability ([4]; first compound 0.8 µM) | relative viability ([4]; first compound 2.53 µM) | relative viability ([4]; first compound 8 µM) |
| --- | --- | --- | --- | --- | --- | --- | --- | --- | --- | --- | --- | --- | --- | --- | --- | --- | --- | --- | --- | --- |
| NCI-H2126 | 0.851 | 0.903 | 0.9 | 0.794 | 0.184 | 0.684 | 0.713 | 0.722 | 0.712 | 0.705 | 0.74 | 0.711 | 0.68 | 0.738 | 0.374 | 0.647 | 0.72 | 0.716 | 0.621 | 0.421 |
| RERF-LC-KJ | 0.803 | 1.02 | 0.728 | 0.286 | 0.199 | 0.884 | 0.947 | 0.871 | 0.868 | 0.808 | 0.859 |  | 0.908 | 0.366 | 0.203 | 0.817 | 0.863 | 0.792 | 0.604 | 0.216 |
| NCI-H1666 | 0.684 | 0.783 | 0.697 | 0.511 | 0.45 | 0.876 | 0.822 | 0.745 | 0.313 | 0.275 | 0.791 | 0.777 | 0.932 | 0.226 | 0.2 | 0.83 | 0.949 | 0.747 | 0.77 | 0.288 |
| PC-14 | 0.239 | 0.282 | 0.323 | 0.0333 | 0.0494 | 0.911 | 1.01 | 0.892 | 0.902 | 0.58 | 0.941 | 0.917 | 0.974 | 0.152 | 0.0932 | 0.906 | 1.01 | 0.892 | 0.77 | 0.107 |
| NCI-H1915 | 0.251 | 0.257 | 0.244 | 0.056 | 0.0357 | 1.07 | 1.06 | 1.09 | 1.07 | 1.06 | 1.13 | 1.13 | 1.01 | 1.07 | 0.0602 | 1.1 | 1.1 | 1.03 | 0.815 | 0.569 |
| NCI-H1703 | 0.417 | 0.318 | 0.123 | 0.0785 | 0.0739 | 0.613 | 0.539 | 0.407 | 0.917 | 0.589 | 1.07 | 0.438 | 0.252 | 0.0867 | 0.0799 | 0.67 | 0.466 | 1.06 | 0.148 | 0.0677 |
| NCI-H661 | 0.745 | 0.69 | 0.78 | 0.376 | 0.213 | 0.598 | 0.564 | 0.66 | 0.529 | 0.735 | 0.62 | 0.552 | 0.46 | 0.311 | 0.181 | 0.618 | 0.579 | 0.663 | 0.44 | 0.182 |
| HCC-78 | 0.928 | 0.662 | 0.398 | 0.233 | 0.258 | 0.448 | 0.52 |  | 0.283 | 0.304 | 0.509 | 0.394 | 0.458 | 0.128 | 0.18 | 0.42 | 0.568 | 0.494 | 0.391 | 0.152 |
| PC-3 [JPC-3] | 1.08 | 1.14 | 0.451 | 0.236 | 0.216 | 0.947 | 0.936 | 0.963 | 0.989 | 0.898 | 0.989 | 0.929 | 0.87 | 0.916 | 0.186 | 1.01 | 1.02 | 0.918 | 0.95 | 0.814 |
| LCLC-103H | 0.747 | 0.778 | 0.671 | 0.355 | 0.202 | 0.953 | 1.02 | 1.13 | 1 | 1.23 | 1.06 | 1.07 | 1.25 | 1.09 | 0.272 | 1.16 | 1.09 | 1.13 | 1.12 | 0.809 |
| EKVX | 0.763 | 0.81 | 0.812 | 0.237 | 0.11 | 0.978 | 0.923 | 1.07 | 0.907 | 0.876 | 1.01 | 0.936 | 0.915 | 0.609 | 0.0808 | 1.02 | 1.13 | 1.1 | 0.788 | 0.144 |
| NCI-H460 | 0.355 | 0.422 | 0.392 | 0.0694 | 0.0397 | 0.719 | 0.864 | 0.582 | 0.0258 | 0.0195 | 0.718 | 0.772 | 0.91 | 0.0249 | 0.0133 | 0.668 | 0.869 | 0.539 | 0.0075 | 0.0036 |
| NCI-H1793 | 0.848 |  | 0.904 | 0.276 | 0.126 | 0.802 | 0.662 | 0.935 | 0.77 | 0.78 | 0.771 | 0.723 | 0.808 | 0.778 | 0.149 | 0.904 | 1.32 | 0.828 | 0.432 | 0.108 |
| NCI-H727 | 0.673 | 0.968 | 0.681 | 0.803 | 0.176 | 0.372 | 0.28 | 0.343 | 0.267 | 0.231 | 0.354 | 0.289 | 0.408 | 0.189 | 0.0878 | 0.208 | 0.342 | 0.261 | 0.221 | 0.1 |
| NCI-H838 | 0.739 | 0.789 | 0.792 | 0.124 | 0.0906 | 0.984 | 1.06 | 0.862 | 0.717 | 0.935 | 0.995 | 1.01 | 0.962 | 0.142 | 0.145 | 0.999 | 1.25 | 0.857 | 0.747 | 0.122 |
| NCI-H1792 | 0.415 | 0.313 | 0.531 | 0.062 | 0.046 | 0.667 | 0.502 |  | 0.48 | 0.561 | 0.526 | 0.594 | 0.352 | 0.537 | 0.221 | 0.58 | 0.56 | 0.513 | 0.316 | 0.112 |
